Results on 2 molecules are retold here after article PMC7600264, “Quasi-Irreversible Inhibition of CYP2D6 by Berberine” (Pharmaceutics, 2020).

Where two headings read alike, the source gives them in different places.

Data set [1] addresses T1, CYP2D6 (Homo sapiens, UniProt P10635). Conditions: microsomes.
Method: The pre-incubation mixtures consisting of potassium phosphate buffer (0.1 M; pH 7.4), HLM (1 mg/mL), NADPH (1 mM), and inhibitor (total volumes of 180 µL per well) were incubated at 37 °C for 30 min. To verify the reversibility of quasi-irreversible inhibition, potassium ferricyanide (2 mM) was co-incubated with the mixture for 10 min at 37 °C, from which microsomes were re-isolated by ultracentrifugation at 100,000 g for 60 min at 4 °C. The resulting microsomal pellet was washed twice with potassium phosphate buffer (0.1 M; pH 7.4). The obtained microsomes (adjusted to 0.2 mg/mL) were incubated with CYP substrates (25 µM of dextromethorphan for CYP2D6 and 25 µM of MDZ for CYP3A4) and NADPH (1 mM) in potassium phosphate buffer (0.1 M; pH 7.4) for 5 min to measure the CYP activity. The reactions were terminated by the addition of ACN (200 µL) containing CBZ (100 nM).
Details of data set [2]: method as in PMID 19589224, PMID 12562448, PMID 27283523. The note with it: clinical PK studies; single administration of BBR; highly variable; cited from earlier work.
Data set [3] addresses recombinant human CYP2D6 (rhCYP2D6) (Homo sapiens, UniProt P10635). The data set is described as follows: Metabolism-dependent CYP2D6 inhibition assay (IC50 shift) using rhCYP2D6.
Method: (§1) Pre-incubation was performed in pooled HLM (0.2 mg/mL) added with BBR, THB, TFD, or DMB, or rhCYP2D6 (10 pmol/mL) added with BBR, with or without NADPH (1 mM) in phosphate buffer (0.1 M; pH 7.4) for 30 min. Then, the CYP2D6 substrate (5 µM of dextromethorphan) and NADPH (1 mM) were added to the mixture and incubated for another 10 min. All incubations were carried out at 37 °C in a shaking water bath (100 rpm) using eight-well tube strips placed in an 8 × 12 rack, where the final volume of each reaction mixture was 200 µL. […] The enzyme reactions were quenched by adding an aliquot (200 µL) of ice-cold ACN containing CBZ (100 nM) as an IS. The samples were centrifuged, and the concentration of CYP2D6 metabolite (i.e., dextrorphan, produced by O-demethylation of dextromethorphan) in supernatants were analyzed using the LC-MS/MS method described in Section 2.2.
Data set [4] has as its target T1, CYP2D6. Set-up: method as in PMID 25145883. Conditions: HLM; previous study; cited from earlier work.
In data set [5] the target is T1, CYP2D6. The data set is described as follows: Kinetic parameters for MDI of CYP2D6 in pooled HLM.
Method: BBR (0–16 μM) was incubated with pooled HLM (0.2 mg/mL), NADPH (1 mM), and dextromethorphan (5 µM) in phosphate buffer (0.1 M; pH 7.4) for various incubation time periods (0–30 min). The apparent inactivation rate constants (kobs) at various BBR concentrations were estimated by fitting first-order kinetics to the relative enzyme activity vs. incubation time profiles. The rate of enzyme inactivation (kinact) and the inhibition constant (KI) were determined by fitting the following Equation (1) to the kobs values at various inhibitor concentrations Equation (1) [31]:(1) 1/kobs=KI/kinact×1/I+1/kinact
The subject of data set [6] is microsomal metabolism of nebivolol. The data set is described as follows: BBR-nebivolol interaction in pooled HLM. It is filed as in vitro ADME, human. Conditions: nebivolol 1 µM; pooled HLM 1 mg/mL; BBR 0, 1, 3, 10 µM; 60 min. How it is done: The HDI between BBR and nebivolol was assessed using pooled HLM, where nebivolol (1 μM) was incubated with HLM (1 mg/mL) and NADPH-generating system (see Section 2.6) in phosphate buffer (0.1 M; pH 7.4) with BBR at various concentrations (0, 1, 3, and 10 μM). The mixture (total volume of 200 µL) was incubated at 37 °C for 60 min in a shaking water bath (100 rpm), following a 5 min of pre-incubation at 37 °C. […] The mass transitions of nebivolol and CBZ were m/z 406 to 151 and m/z 237 to 194, respectively.

Data set [7] deals with T1, CYP2D6. Description: in vitro. The note with it: pH 7.4.
Method: as §1
The format of data set [8] is in vitro ADME, human. Conditions: precursor 1 µM in pooled HLM with NADPH-generating system, mean ± SD. The protocol:
Table 3. Putative M1 metabolite produced in pooled HLM incubated with thalifendine or
Precursor molecules Incubation time (min)a M1 signal at m/z 310 (103 × cps)b
Demethyleneberberine 0 107 ± 3
a Thalifendine or demethyleneberberine (1 μM) was incubated with pooled HLM in the presence of
NADPH-generating system; b Each value represents the mean ± SD for three separate samples. […]

T1 sequence (P10635 whole entry): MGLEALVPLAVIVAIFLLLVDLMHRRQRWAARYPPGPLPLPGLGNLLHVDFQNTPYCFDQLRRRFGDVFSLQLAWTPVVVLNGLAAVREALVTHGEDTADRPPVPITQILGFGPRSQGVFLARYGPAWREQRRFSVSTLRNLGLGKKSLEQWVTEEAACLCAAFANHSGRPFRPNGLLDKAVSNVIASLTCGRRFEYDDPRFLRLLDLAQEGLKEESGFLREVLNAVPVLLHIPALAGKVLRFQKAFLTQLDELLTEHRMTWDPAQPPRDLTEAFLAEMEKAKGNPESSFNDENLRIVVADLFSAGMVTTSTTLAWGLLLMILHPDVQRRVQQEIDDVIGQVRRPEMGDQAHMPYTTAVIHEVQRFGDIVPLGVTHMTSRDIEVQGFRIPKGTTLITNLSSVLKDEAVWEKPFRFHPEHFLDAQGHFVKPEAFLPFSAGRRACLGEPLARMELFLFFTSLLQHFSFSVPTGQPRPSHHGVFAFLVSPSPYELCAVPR
recombinant human CYP2D6 (rhCYP2D6), sequence (P10635 whole entry): as above

By IC50 is commonly meant the concentration that gives 50% inhibition. The Ki is a measure of affinity in units of concentration, obtained from inhibition or displacement. A low value points to a stronger hold on the target. By kinact is commonly meant the rate constant of inactivation at saturating inhibitor. Take `COc1ccc2cc3[n+](cc2c1OC)CCc1cc2c(cc1-3)OCO2` [BBR, berberine]: in data set [1], the “Mode of CYP2D6 inhibition” value is listed as “quasi-irreversible”. Besides, the Maximum plasma concentration result in data set [2] was “less than 1 nM to more than 1 µM”. The IC50 in data set [3] (IC50 against rhCYP2D6, pre-incubation with NADPH, 30 min pre-incubation with NADPH) is 1.73 µM; in data set [3] (IC50 against rhCYP2D6, pre-incubation without NADPH, 30 min pre-incubation in the absence of NADPH), 5.31 µM; in data set [4], approximately 23.5 µM. Besides, affinity in data set [5] was put at a Ki of 4.29 µM. In addition, the inactivation rate constant (kinact) in data set [5] (human, pooled human liver microsomes, pH 7.4, probe dextromethorphan (5 µM)) was 0.000417 s⁻¹. Also, the “Effect on microsomal clearance of nebivolol” value in data set [6] was “significantly inhibited”. Further, the IC50 shift at 10 min in data set [7] was approximately 7.5.
With `COc1ccc2cc3[n+](cc2c1OC)CCc1cc(O)c(O)cc1-3` [DMB, demethyleneberberine], the “M1 signal at m/z 310” value in data set [8] (incubation time 0 min) was 107 ± 3 103 × cps; in data set [8] (incubation time 30 min), 432 ± 27 103 × cps.
